What was measured:
[1] = dispersion contacted on a film of APTES
[2] = Insolubility of the deposit in water in the Petri dish (Example 3); conditions: general statement in the description

Molecule: Zinc Pyrithione
- flocculation of the dispersion [1]: almost immediate flocculation

Molecule: CCO[Si](CCCN)(OCC)OCC [APTES, γ-aminopropyl triethoxysilane]
- water solubility of the material resulting from condensation [2]: high water solubility

Reference: patent US20130034509A1, “COSMETIC TREATMENT METHOD INVOLVING A COMPOUND CAPABLE OF CONDENSING IN SITU” (L'OREAL, priority 2009, published 2013)
